According to patent US20250268903A1, “RXFP1 AGONISTS” (BRISTOL-MYERS SQUIBB COMPANY, priority 2021, published 2025):

Each compound was assayed against T1, human RXFP1 (Homo sapiens, UniProt Q9HBX9) (assay: hRXFP1 HEK293 cAMP assay (HTRF)). Conditions: HEK293 cells stably expressing human RXFP1, 30 min at room temperature.
T1 construct: expressed in transfected cells
T1 sequence (Q9HBX9 1-757): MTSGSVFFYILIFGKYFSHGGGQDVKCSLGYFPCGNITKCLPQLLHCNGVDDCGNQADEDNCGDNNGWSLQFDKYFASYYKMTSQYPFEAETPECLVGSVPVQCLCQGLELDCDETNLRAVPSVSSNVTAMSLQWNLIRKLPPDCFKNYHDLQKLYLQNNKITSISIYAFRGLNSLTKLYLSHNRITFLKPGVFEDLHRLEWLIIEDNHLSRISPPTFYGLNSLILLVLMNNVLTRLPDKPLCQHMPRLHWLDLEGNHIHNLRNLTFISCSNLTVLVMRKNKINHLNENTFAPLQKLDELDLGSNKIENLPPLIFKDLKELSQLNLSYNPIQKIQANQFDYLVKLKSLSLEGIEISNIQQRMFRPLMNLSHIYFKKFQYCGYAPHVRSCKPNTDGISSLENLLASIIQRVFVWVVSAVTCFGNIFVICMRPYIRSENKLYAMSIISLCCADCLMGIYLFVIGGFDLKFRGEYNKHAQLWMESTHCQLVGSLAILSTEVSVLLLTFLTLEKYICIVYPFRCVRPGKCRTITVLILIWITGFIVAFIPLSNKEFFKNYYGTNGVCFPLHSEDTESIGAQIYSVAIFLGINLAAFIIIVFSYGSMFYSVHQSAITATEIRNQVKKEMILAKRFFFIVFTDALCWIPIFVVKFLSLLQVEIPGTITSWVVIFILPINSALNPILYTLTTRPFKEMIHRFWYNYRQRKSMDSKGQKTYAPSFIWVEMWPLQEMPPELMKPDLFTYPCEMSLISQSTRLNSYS
Format: cell-based
Description: RXFP1 Cyclic Adenosine Monophosphate (cAMP) Assays. […] Cells were dissociated and suspended in assay buffer. The assay buffer was HBSS buffer (with calcium and magnesium) containing 20 mM HEPES, 0.05% BSA, and 0.5 mM IBMX. Cells (3000 cells per well, except 1500 cell per well for HEK293 cells stably expressing human RXFP1) were added to 384-well Proxiplates (Perkin-Elmer). Cells were immediately treated with test compounds in DMSO (2% final) at final concentrations in the range of 0.010 nM to 50 μM. Cells were incubated for 30 min at room temperature. The level of intracellular cAMP was determined using the HTRF HiRange cAMP assay reagent kit (Cisbio) according to manufacturer's instructions. Solutions of cryptate conjugated anti-cAMP and d2 fluorophore-labelled cAMP were made in a supplied lysis buffer separately. Upon completion of the reaction, the cells were lysed with equal volume of the d2-cAMP solution and anti-cAMP solution. […] The potency and activity of a compound to […] cAMP production was then determined by fitting to a 4-parametric logistic equation from a plot of cAMP level versus compound concentrations.
Work on `COc1ccc(/C=C/C(=O)O)cc1C(=O)N[C@H]1[C@@H](C(=O)Nc2ccc(F)c(C(F)(F)F)c2)[C@H]2CC[C@@H]1/C2=C\C(F)(F)F` [Example 8, (E)-3-(3-(((1R,2R,3S,4R,Z)-3-((4-fluoro-3-(trifluoromethyl)phenyl)carbamoyl)-7-(2,2,2-trifluoroethylidene)bicyclo[2.2.1]heptan-2-yl)carbamoyl)-4-methoxyphenyl) acrylic acid] yielded an EC50 of 309 nM. In the case of `COc1ccc(CCC(=O)O)cc1C(=O)N[C@@H]1C2CCC(/C2=C/C(F)(F)F)[C@@H]1C(=O)Nc1ccc(F)c(C(F)(F)F)c1` (stereo partly drawn) [Example 9, 3-(3-{[(2R,3S,7Z)-3-{[4-fluoro-3-(trifluoromethyl)phenyl]carbamoyl}-7-(2,2,2-trifluoroethylidene)bicyclo[2.2.1]heptan-2-yl]carbamoyl}-4-methoxyphenyl) propanoic acid], the EC50 is reported as 255 nM. In the case of `COc1ccc(CO)cc1C(=O)N[C@H]1[C@@H](C(=O)Nc2ccc(F)c(C(F)(F)F)c2)[C@H]2CC[C@@H]1/C2=C\C(F)(F)F` [Example 10, (1R,2S,3R,4R,Z)—N-(4-fluoro-3-(trifluoromethyl)phenyl)-3-(5-(hydroxymethyl)-2-methoxybenzamido)-7-(2,2,2-trifluoroethylidene) bicyclo[2.2.1]heptane-2-carboxamide], the EC50 is reported as 962 nM. Work on `CNc1ccc(CCCO)cc1C(=O)N[C@H]1[C@@H](C(=O)Nc2ccc(F)c(C(F)(F)F)c2)[C@H]2CC[C@@H]1/C2=C\C(F)(F)F` [Example 11, (1R,2S,3R,4R,Z)—N-(4-fluoro-3-(trifluoromethyl)phenyl)-3-(5-(3-hydroxypropyl)-2-(methylamino)benzamido)-7-(2,2,2-trifluoroethylidene) bicyclo[2.2.1]heptane-2-carboxamide] yielded an EC50 of 4710 nM. In the case of `COc1ccc(COc2cccc(C(=O)O)c2)cc1C(=O)N[C@H]1[C@@H](C(=O)Nc2ccc(F)c(C(F)(F)F)c2)[C@H]2CC[C@@H]1/C2=C\C1CC1` [Example 12, 3-((3-(((1R,2R,3S,4R,Z)-7-(cyclopropylmethylene)-3-((4-fluoro-3-(trifluoromethyl)phenyl)carbamoyl)bicyclo[2.2.1]heptan-2-yl)carbamoyl)-4-methoxybenzyl)oxy)benzoic acid], the EC50 is reported as 10 nM. With `COc1ccc(CN2CCOCC2)cc1C(=O)N[C@@H]1C2CCC(/C2=C/C(F)(F)F)[C@@H]1C(=O)Nc1ccc(F)c(C(F)(F)F)c1` (stereo partly drawn) [Example 13, (2S,3R,7Z)N-[4-fluoro-3-(trifluoromethyl)phe-nyl]-3-{2-methoxy-5-[(morpholin-4-yl)methyl]benzamido}-7-(2,2,2-trifluoroethylidene)bi-cyclo[2.2.1]heptane-2-carboxamide] the EC50 was 625 nM. Compound `COc1cc(COC2(CO)CC2)ccc1C(=O)N[C@H]1[C@@H](C(=O)Nc2ccc(F)c(C(F)(F)F)c2)[C@H]2CC[C@@H]1/C2=C\C1CC1` [Example 14, (1R,2S,3R,4R,Z)-7-(cyclopropylmethylene)-N-(4-fluoro-3-(trifluoromethyl)phenyl)-3-(4-((1-(hydroxymethyl)cyclopropoxy)methyl)-2-methoxybenzamido) bicyclo[2.2.1]heptane-2-carboxamide] has an EC50 of 13 nM. For `COc1ccc(COCC2CC2(F)F)cc1C(=O)N[C@@H]1C2CCC(/C2=C/C2CC2)[C@@H]1C(=O)Nc1ccc(F)c(C(F)(F)F)c1` (stereo partly drawn) [Example 15, (2S,3R,7Z)-7-(cyclopropylmethyli-dene)-3-(5-{[(2,2-difluorocyclopropyl)methoxy]methyl}-2-methoxybenzamido)-N-[4-fluoro-3-(trifluoromethyl)phe-nyl]bicyclo[2.2.1]hept-ane-2-carboxamide], the EC50 was 36 nM. Compound `COc1ccc(COCC2COC2)cc1C(=O)N[C@@H]1C2CCC(/C2=C/C2CC2)[C@@H]1C(=O)Nc1ccc(F)c(C(F)(F)F)c1` (stereo partly drawn) [Example 16, (2S,3R,7Z)-7-(cyclopropylmethyli-dene)-N-[4-fluoro-3-(trifluoromethyl)phe-nyl]-3-(2-methoxy-5-{[(oxetan-3-yl)methoxy]methyl}benzamido)bi-cyclo[2.2.1]hept-ane-2-carboxamide] has an EC50 of 94 nM. `COc1ccc(COC2(C(=O)NCCO)CC2)cc1C(=O)N[C@@H]1C2CCC(/C2=C/C2CC2)[C@@H]1C(=O)Nc1ccc(F)c(C(F)(F)F)c1` (stereo partly shown) [Example 17] gave an EC50 of 121 nM. `COc1ccc(COC2(C(=O)O)CC2)cc1C(=O)N[C@@H]1C2CCC(/C2=C/C2CC2)[C@@H]1C(=O)Nc1ccc(F)c(C(F)(F)F)c1` (stereo partly drawn) [Example 18, 1-[(3-{[(2R,3S,7Z)-7-(cyclopropylmethyli-dene)-3-{[4-fluoro-3-(trifluoromethyl)phe-nyl]carbamoyl}bicy-clo[2.2.1]heptan-2-yl]carbamoyl}-4-methoxyphenyl)meth-oxy]cyclopropane-1-carboxylic acid] gave an EC50 of 124 nM. Work on `COc1ccc(COC2CC2)cc1C(=O)N[C@@H]1C2CCC(/C2=C/C2CC2)[C@@H]1C(=O)Nc1ccc(F)c(C(F)(F)F)c1` (stereo partly drawn) [Example 19, (2S,3R,7Z)-3-[5-(cyclopropoxymethyl)-2-methoxybenzamido]-7-(cyclopropylmethyli-dene)-N-[4-fluoro-3-(trifluoromethyl)phe-nyl]bicyclo[2.2.1]hept-ane-2-carboxamide] yielded an EC50 of 125 nM. With `COc1ccc(COc2ccccc2)cc1C(=O)N[C@@H]1C2CCC(/C2=C/C(F)(F)F)[C@@H]1C(=O)Nc1ccc(F)c(C(F)(F)F)c1` (stereo partly drawn) [Example 20, (2S,3R,7Z)-N-[4-fluoro-3-(trifluoromethyl)phe-nyl]-3-[2-methoxy-5-(phenoxymethyl)ben-zamido]-7-(2,2,2-trifluoroethylidene)bi-cyclo[2.2.1]heptane-2-carboxamide] the EC50 was 142 nM. Compound `COc1ccc(CN2C(=O)NC3(CCCC3)C2=O)cc1C(=O)N[C@@H]1C2CCC(/C2=C/C2CC2)[C@@H]1C(=O)Nc1ccc(F)c(C(F)(F)F)c1` (stereo partly drawn) [Example 21, (2S,3R,7Z)-7-(cyclopropylmethyli-dene)-3-[5-({2,4-dioxo-1,3-diazaspiro[4.4]nonan-3-yl}methyl)-2-methoxybenzamido]-N-[4-fluoro-3-(trifluoromethyl)phe-nyl]bicyclo[2.2.1]hept-ane-2-carboxamide] has an EC50 of 330 nM. `COc1ccc(CN2C(=O)CNC2=O)cc1C(=O)N[C@@H]1C2CCC(/C2=C/C2CC2)[C@@H]1C(=O)Nc1ccc(F)c(C(F)(F)F)c1` (stereo partly drawn) [Example 22, (2S,3R,7Z)-7-(cyclopropylmethyli-dene)-3-{5-[(2,5-dioxoimidazolidin-1-yl)methyl]-2-methoxybenzamido}-N-[4-fluoro-3-(trifluoromethyl)phe-nyl]bicyclo[2.2.1]hept-ane-2-carboxamide] was tested, and the EC50 was 417 nM. For `COc1cc(CN2C(=O)CNC2=O)ccc1C(=O)N[C@@H]1C2CCC(/C2=C/C2CC2)[C@@H]1C(=O)Nc1ccc(F)c(C(F)(F)F)c1` (stereo partly drawn) [Example 25, (2S,3R,7Z)-7-(cyclopropylmethyli-dene)-3-{4-[(2,5-dioxoimidazolidin-1-yl)methyl]-2-methoxybenzamido}-N-[4-fluoro-3-(trifluoromethyl)phe-nyl]bicyclo[2.2.1] heptane-2-carboxamide], the EC50 was 2040 nM. In the case of `COc1cc(CN2C(=O)CNC2=O)ccc1C(=O)N[C@@H]1C2CCC(/C2=C/C(F)(F)F)[C@@H]1C(=O)Nc1ccc(F)c(C(F)(F)F)c1` (stereo partly drawn) [Example 26, (2S,3R,7Z)-3-{4-[(2,5-dioxoimidazolidin-1-yl)methyl]-2-methoxybenzamido}-N-[4-fluoro-3-(trifluoromethyl)phe-nyl]-7-(2,2,2-trifluoroethylidene)bi-cyclo[2.2.1]heptane-2-carboxamide], the EC50 is reported as 1380 nM. Work on `COc1ccc(COC2CCOC2)cc1C(=O)N[C@@H]1C2CCC(/C2=C/C(F)(F)F)[C@@H]1C(=O)Nc1ccc(F)c(C(F)(F)F)c1` (stereo partly drawn) [Example 27, (2S,3R,7Z)-N-[4-fluoro-3-(trifluoromethyl)phe-nyl]-3-{2-methoxy-5-[(oxolan-3-yloxy)methyl]benza-mido}-7-(2,2,2-trifluoroethylidene)bi-cyclo[2.2.1]heptane-2-carboxamide] yielded an EC50 of 4680 nM. With `COc1ccc(COCCC(=O)O)cc1C(=O)N[C@@H]1C2CCC(/C2=C/c2ccccc2)[C@@H]1C(=O)Nc1ccc(F)c(C(F)(F)F)c1` (stereo partly drawn) [Example 28, 3-[(3-{[(2R,3S,7Z)-3-{[4-fluoro-3-(trifluoromethyl)phe-nyl]carbamoyl}-7-(phenylmethylidene)bicyclo[2.2.1]heptan-2-yl]carbamoyl}-4-methoxyphenyl)meth-oxy]propanoic acid] the EC50 was 56 nM.
